In paper PMC6290777, “Inhalation of the prodrug PI3K inhibitor CL27c improves lung function in asthma and fibrosis” (Nature Communications, 2018):

What was measured:
[1] = tested on: fMLP-activated LPS-primed neutrophils; assay: ROS production by fMLP-activated LPS-primed neutrophils; assay type: cell-based, mouse; conditions: fMLP 2.5 μM; CL27c 1 and 10 µM
Method: Production of ROS was determined by primary isolated neutrophils (5 × 10^6/mL) (as described above) with lipopolysaccharide (1 μg/mL) for 1 h and then preincubating them with luminol (20 μg/mL) and horseradish peroxidase (35 μg/mL) in RPMI medium plus 10% FCS. The cells were subsequently stimulated with 2.5 μM formyl-methionyl-leucyl-phenylalanine (fMLP, Sigma-Aldrich), and light emission was recorded every 5 sec for a period of 300 sec in a Berthold MicroLumat Plus luminometer (Berthold Technologies).

[2] = tested on: AKT phosphorylation in IPF human lung fibroblasts; assay: AKT phosphorylation of human lung fibroblasts; assay type: cell-based; conditions: IPF cells; CL27c 10 µM
Method: Human lung fibroblast cell culture
Two separate human lung fibroblast cell lines isolated from IPF patients were used: LL97a derived from a person (ATCC, Manassas, USA) and DHLF-IPF (#CC-7231, Lonza, Switzerland). Control cell lines were CCD-16Lu, obtained from a person that died of astrocytoma –a disease unrelated to IPF - (ATCC) and NHLF (#CC-2512; Lonza). LL97a and CCD-16Lu cells were cultured in Dulbecco's modified Eagles medium (DMEM, Sigma Aldrich, Dorset, UK). Media was supplemented with penicillin/streptomycin (100 U/ml, Thermo-Fischer, Germany) and 10% fetal bovine serum (FBS, Thermo-Fischer, Germany). Cells from Lonza were cultured in the FGMTM (#CC-3132, Lonza). […]
Caliper based assay, the reaction was terminated by addition of EDTA buffer. Substrate and product were separated and quantified electrophoretically using the microfluidic-based and the assay plate was read on Caliper LabChip 3000 Drug Discovery System from Caliper Life Sciences (Walthan, MA, USA). ADP Glo was another method of detection used for some kinase assays where data was obtained by quantifying the intensity of luminescence. For ADP Glo based assay, the reaction was terminated by applying the Promega ADP Glo Kinase Assay kit and the assay plate was read on a LJL Biosystems Analyst HT. […]

[3] = tested on: murine bone marrow-derived macrophages; assay: BMDM migration (Boyden chamber); assay type: cell-based, mouse; conditions: CXCL12 100 nM and C5a 50 nM; CL27c 1 and 10 µM
Method: For the migration assay, BMDMs (isolated as above described) were pretreated with Versene (Gibco™ #15040066) to detach them from the plate, washed, and incubated with free RPMI with different concentrations of CL27c for at least 2 h. Migration assay was subsequently performed by using a Boyden chamber toward C5a (50 nM, Sigma-Aldrich #SRP4895A) and CXCL12 (100 nM, Peprotech #250-20A) chemokines for 1 h at 37 °C, 5% CO2. Migrated BMDMs, attached to the polycarbonate of the Boyden chamber, were stained with Diff-Quik® reagent (MICROPTIC S.L. #DQ-ST) and counted at the microscope (5 fields/sample). The percentage of migrated cells was calculated by relating the number of the treated cells with the control vehicle (free RPMI).

For COC(=O)c1cccc(Cn2cc(-c3cccc4c(=O)cc(N5CCOCC5)[nH]c34)nn2)c1 [CL27c], the “reactive oxygen species production (respiratory burst)” value [1] was “efficiently and dose-dependently inhibited reactive oxygen species production”, the “serum-induced AKT phosphorylation” value [2] was “effectively blunted serum-induced AKT phosphorylation” and the “chemotaxis of BMDM” value [3] was “significantly reduce CXCL12- and C5a-induced chemotaxis”.
